This is an account of results in ChEMBL document CHEMBL1275374, “Ligand-based virtual screening and ADME-tox guided approach to identify triazolo-quinoxalines as folate cycle inhibitors” (Bioorg Med Chem, 2010).

Calls of active or inactive are those of the source. No cut-off for these calls is given here.

In data set [1] the target is T1, Thymidylate synthase (Homo sapiens, UniProt P04818). The data set is described as follows: Inhibition of human thymidylate synthase expressed in Escherichia coli BL21 at 50 uM.
Target sequence in this assay (P04818 2-313 limits assumed): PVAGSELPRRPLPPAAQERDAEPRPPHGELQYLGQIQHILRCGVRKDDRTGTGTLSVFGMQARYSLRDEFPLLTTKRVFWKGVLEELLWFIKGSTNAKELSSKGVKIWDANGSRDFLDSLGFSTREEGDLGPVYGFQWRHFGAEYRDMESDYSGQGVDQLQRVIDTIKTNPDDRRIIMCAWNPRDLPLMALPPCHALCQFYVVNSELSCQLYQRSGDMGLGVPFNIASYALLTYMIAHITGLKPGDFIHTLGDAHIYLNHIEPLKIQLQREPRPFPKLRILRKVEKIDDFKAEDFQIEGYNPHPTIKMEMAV
Data set [2] concerns the target T2, Dihydrofolate reductase (Homo sapiens) (UniProt P00374).
T2 sequence (whole entry): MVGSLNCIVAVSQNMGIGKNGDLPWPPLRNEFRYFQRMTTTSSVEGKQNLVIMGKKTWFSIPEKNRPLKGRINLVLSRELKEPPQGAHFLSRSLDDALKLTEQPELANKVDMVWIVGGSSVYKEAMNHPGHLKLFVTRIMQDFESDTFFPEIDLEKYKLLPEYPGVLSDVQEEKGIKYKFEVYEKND
The data set is described as follows: Inhibition of human DHFR expressed in Escherichia coli BL21 at 100 uM.

Data set [3] has as its target T1, Thymidylate synthase. The data set is described as follows: Inhibition of human thymidylate synthase expressed in Escherichia coli BL21 at 100 uM.
Target sequence in this assay (P04818 2-313 limits assumed): as the sequence (P04818 2-313 limits assumed) above
Data set [4] has as its system A2780. The data set is described as follows: Cytotoxicity against human cDDP-resistant A2780 cells after 72 hrs using crystal violet staining by spectrophotometric analysis. In kind it is cell-based. The note with it: A2780, 72 h.
Data set [5] relates to Vero. The data set is described as follows: Cytotoxicity against african green monkey Vero cells after 72 hrs using crystal violet staining by spectrophotometric analysis. In kind it is cell-based. The note with it: Chlorocebus sabaeus.
Data set [6] can be described thus: Cytotoxicity against human cDDP-resistant C13 cells after 72 hrs using crystal violet staining by spectrophotometric analysis. The data set is classed as cell-based. The note with it: C13, 72 h.
The test system of data set [7] is 2008. The data set is described as follows: Cytotoxicity against human cDDP-sensitive 2008 cells after 72 hrs using crystal violet staining by spectrophotometric analysis. In kind it is cell-based. The note with it: Homo sapiens, 2008, 72 h.
Data set [8] concerns A2780. The data set is described as follows: Cytotoxicity against human cDDP-sensitive A2780 cells after 72 hrs using crystal violet staining by spectrophotometric analysis. The note with it: A2780, 72 h. In kind it is cell-based.
Data set [9] is described as follows: Solubility of the compound in dimethyl sulfoxide. In kind it is physicochemical.
Data set [10] relates to 2008. The data set is described as follows: Inhibition of DHFR protein expression in human cDDP-sensitive 2008 cells after 72 hrs by Western blotting. The data set is classed as functional, cell-based. In general terms: In western blotting, separated proteins are transferred to a membrane and probed.
Data set [11] has as its system C13. The data set is described as follows: Inhibition of DHFR protein expression in human cDDP-resistant C13 cells after 72 hrs by Western blotting. The data set is classed as functional, cell-based.
Data set [12] relates to 2008. The data set is described as follows: Inhibition of thymidylate synthase protein expression in human cDDP-sensitive 2008 cells after 72 hrs by Western blotting. In kind it is functional, cell-based.
The nature of data set [13]: Inhibition of thymidylate synthase protein expression in human cDDP-resistant C13 cells after 72 hrs by Western blotting. In kind it is functional, cell-based.
Data set [14] deals with T1, Thymidylate synthase. The data set is described as follows: Inhibition of thymidylate synthase catalytic activity in human cDDP-sensitive 2008 cells after 72 hrs by Western blotting (reference value: 38.8 +/- 3.9%). The data set is classed as cell-based. The note with it: concentration not given here.
Target sequence in this assay (P04818 2-313 limits assumed): as the sequence (P04818 2-313 limits assumed) above
Data set [15] deals with T1, Thymidylate synthase. The data set is described as follows: Inhibition of thymidylate synthase catalytic activity in human cDDP-resistant C13 cells after 72 hrs by Western blotting (reference value: 12.9 +/- 0.6%). In kind it is cell-based. The note with it: concentration not given here.
Target sequence in this assay (P04818 2-313 limits assumed): as the sequence (P04818 2-313 limits assumed) above
Data set [16] deals with 2008. The data set is described as follows: Induction of ROS accumulation in human cDDP-sensitive 2008 cells at IC50 concentration after 72 hrs […]. In kind it is cell-based. The note with it: human, 2008, 72 h.
A short description of data set [17]: Induction of ROS accumulation in human cDDP-resistant C13 cells at IC50 concentration after 72 hrs […]. The note with it: c13, 72 h. In kind it is cell-based.
The target of data set [18] is T1, Thymidylate synthase. The data set is described as follows: Inhibition of human thymidylate synthase expressed in Escherichia coli BL21.
Target sequence in this assay (P04818 whole entry): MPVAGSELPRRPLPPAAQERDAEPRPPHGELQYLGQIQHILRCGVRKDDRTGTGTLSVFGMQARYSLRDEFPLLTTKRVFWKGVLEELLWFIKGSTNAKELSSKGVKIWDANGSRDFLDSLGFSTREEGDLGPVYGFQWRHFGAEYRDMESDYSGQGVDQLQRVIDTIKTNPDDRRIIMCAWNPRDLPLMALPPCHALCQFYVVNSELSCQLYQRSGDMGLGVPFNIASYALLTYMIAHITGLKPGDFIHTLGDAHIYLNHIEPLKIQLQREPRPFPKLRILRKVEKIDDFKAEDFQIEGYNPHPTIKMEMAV
The nature of data set [19]: Cytotoxicity against human Fibroblast at up to 100 uM after 72 hrs using crystal violet staining by spectrophotometric analysis. In kind it is cell-based.
Data set [20] concerns the target T1, Thymidylate synthase. The data set is described as follows: Inhibition of human thymidylate synthase expressed in Escherichia coli BL21 at 25 uM.
Target sequence in this assay (P04818 2-313 limits assumed): as the sequence (P04818 2-313 limits assumed) above

`Cc1ccc(S(=O)(=O)N(C)c2nc3ccccc3n3c(-c4ccccc4)nnc23)cc1`: the inhibition (commonly the relative decrease from the control value, in per cent) in data set [1] was 70%. In addition, in data set [2], the inhibition result was “inactive”.

Turning to `Cc1ccc(-c2nnc3c(N(C)C)nc4ccccc4n23)cc1`, the inhibition in data set [3] came out at 41%. Also, the inhibition entry in data set [2] was “inactive”.

Consider `FC(F)(F)c1nc2ccccc2n2c(-c3ccc(Cl)cc3)nnc12`, for which the IC50 (usually the point on the concentration scale where inhibition reaches its midpoint) in data set [4] turned out to be 4.7 µM; in data set [5], 1.2 µM; in [6], 3.4 µM; in data set [7], 2.5 µM; in data set [8], 2.3 µM. This compound also had an inhibition in data set [1] below 5%.

`COCCn1cnc2c(c1=O)c1nc3ccccc3nc1n2-c1ccc(Cl)c(Cl)c1`: in [9], the solubility result is “Insoluble”. The concentration for half-maximal inhibition (IC50) turned out to be 52 µM in [5], 36 µM in [6] and 31 µM in data set [7]. This compound also had an inhibition in data set [1] below 5%.

Regarding `Cc1ccc(-c2nc3ccccc3n3cc4c(=O)n(C)c(=O)n(C)c4c23)cc1`, the solubility entry in data set [9] is listed as “Insoluble”. For the same compound, the half-maximal inhibitory concentration (IC50) in [5] is 100 µM; in data set [6], 56 µM; in [7], 53 µM. Further, the inhibition in data set [1] is below 5%.

For the compound `FC(F)(F)c1nc2ccccc2n2c(-c3c(Cl)cccc3Cl)nnc12`, the IC50 in [4] amounted to 25 µM; in data set [5], 10 µM; in data set [6] it was 28 µM; in [7], 37 µM; in data set [8], 27.5 µM. The inhibition result in data set [10], in data set [11], in data set [12] and in data set [13] was “inactive” throughout. Moreover, the inhibition turned out to be 58.9% in [14] and 32.3% in data set [15]. The Activity entry in data set [16] and in data set [17] was “Non-toxic” each time.

Turning to `COCCn1c(C)nc2c(c1=O)c1nc3ccccc3nc1n2-c1cc(C)cc(C)c1`, the solubility result in [9] is on record as “Insoluble”. Moreover, the inhibition in data set [1] was below 5%.

For `Cc1cccc(-c2c3c(=O)n(C)c(=O)n(C)c3c3c(C(F)(F)F)nc4ccccc4n23)c1`, the figures for the IC50 in data set [5], in data set [6] and in data set [7] were 100 µM, 55 µM and 49 µM, respectively. For the same compound, the inhibition in data set [1] was below 5%.

Regarding `O=C(Nc1cc(C(F)(F)F)ccc1Cl)c1ccc2nccnc2c1`, the IC50 in data set [6] and in data set [7] was 50 µM each time. For the same compound, the inhibition in [1] is below 5%.

For `Fc1ccccc1-c1nnc2c(C(F)(F)F)nc3ccccc3n12`, the IC50 in data set [4] turned out to be 11 µM; in [5], 14 µM; in [6] it was 27 µM; in [7], 17.5 µM; in data set [8] it was 9 µM. For the same compound, the inhibition in [3] was 17%; in data set [2], 10%.

On to `COc1cc(Nc2nc3cc(C(F)(F)F)ccc3nc2C)cc(OC)c1OC`, for which the concentration for half-maximal inhibition (IC50) in [4] amounted to 35.3 µM; in data set [5] it was 40.2 µM; in data set [6] it was 14.2 µM; in [7] it was 28.8 µM; in [8], 27.5 µM.

Consider `Clc1nc2ccccc2n2c(-c3ccccc3)nnc12`, for which the 50% inhibitory concentration (IC50) in data set [4] turned out to be 6 µM; in data set [5] it was 18.2 µM; in data set [6], 13 µM; in data set [7], 12.5 µM; in data set [8] it was 2.5 µM. Also, the affinity in data set [18], expressed as Ki, was 10 µM. Besides, the inhibition in data set [1] was 28%. In addition, the Activity entry in data set [19] is given as “Non-toxic”.

Consider `N#Cc1c(N)n(CCc2ccccc2F)c2nc3ccccc3nc12`, for which the figures for the half-inhibitory concentration (IC50) in [5], in data set [6] and in data set [7] were 9.1 µM, 22 µM and 18 µM, respectively. In data set [1], this compound registered an inhibition below 5%.

For the compound `O=C(CSc1nc2ccccc2nc1-c1ccccc1)N1CCCCCC1`, the inhibition in data set [1] is below 5%.

`Cc1ccc(-c2nnc3c(C(F)(F)F)nc4ccccc4n23)cc1`: the IC50 in data set [4] was 35.7 µM; in data set [5] it was above 50 µM; in data set [6] it was 26.7 µM; in data set [7], 42.5 µM; in data set [8], 33 µM. The inhibition entry in data set [10], in data set [11], in [12] and in [13] was “inactive” each time. In addition, the inhibition in data set [14] turned out to be 38.8%; in [15], 12.9%. Moreover, the Activity result in data set [16] and in data set [17] was “Non-toxic” each time.

`O=C(c1ccco1)N1N=C(c2ccc3nccnc3c2)CC1c1ccccc1` (configuration not stated): in [1], the inhibition was below 5%. Also, the inhibition entry in [3] is “inactive”.

Compound `Clc1ccc(Oc2nc3ccccc3n3c(-c4ccc(Cl)cc4)nnc23)cc1` yielded an inhibition in [20] of 53%. In data set [2], the inhibition result is “inactive”.

Regarding `C=CCn1cnc2c(c1=O)c1nc3ccccc3nc1n2CCCC`, in [9], the solubility entry is reported as “Insoluble”. This compound showed an inhibition in [1] below 5%.

For `CN1CCN(c2nc3ccccc3n3c(-c4ccccc4)nnc23)CC1`, the IC50 is 38 µM in data set [4]; 22 µM in data set [5]; above 50 µM in data set [6]; 48 µM in data set [7]; 18 µM in [8]. For the same compound, the inhibition in data set [3] was below 10%; in data set [2], 40%.

Regarding `FC(F)(F)c1ccc(-c2nnc3c(C(F)(F)F)nc4ccccc4n23)cc1`, the inhibition in data set [3] came to 22%; in data set [2] it was 10%.

Regarding `O=C(Nc1cccc(Br)c1)c1ccc2nccnc2c1`, the IC50 in [6] and in data set [7] was 50 µM each time. Moreover, the inhibition in data set [1] was below 5%.

With `COc1ccc(-c2nc3ccccc3n3cc4c(=O)n(C)c(=O)n(C)c4c23)cc1`, the solubility entry in data set [9] is reported as “Insoluble”. For the same compound, the inhibition in data set [1] was below 5%.

With `Cc1cc(Nc2nc3ccccc3n3cnnc23)ccc1Br`, the IC50 in [5] worked out at 20 µM; in data set [6], 19 µM; in data set [7], 17 µM. Moreover, the inhibition in data set [1] is below 5%.

In the case of `COc1ccc(C(=O)c2nc3ccccc3nc2N2CCN(C)CC2)cc1`, the IC50 is 27.4 µM in data set [4]; 42.4 µM in [5]; 8.3 µM in data set [6]; 18.8 µM in data set [7]; 17.4 µM in data set [8].

For `Cc1ccc(S(=O)(=O)N2CN(c3ccccc3)c3nc4ccccc4nc32)cc1`, the IC50 in [6] and in data set [7] was 50 µM in each case. The inhibition in [1] is below 5%.
